Reference: US10254223B2, “Apparatus and methods for analysing fluorescent particles” (ChemoMetec A/S, priority 2008, dated 2019)

Key:
Type in all cases: cell-based
Jurkat cells [1] = assay: Early apoptosis by mitochondrial membrane potential (JC-1 and DAPI staining); details: 10 μM campthotecin, 5 hours at 37° C.
Text: Loss of the mitochondrial membrane potential is known to precede apoptosis and chemical-hypoxia-induced necrosis. The lipophilic cationic dye JC-1 (5,5,6,6-tetrachloro-1,1,3,3-tetraethylbenzimidazol-carbocyanine iodide) display potential-dependent accumulation in the mitochondria and provides a simple, fluorescent-based method for distinguishing between healthy and apoptotic cells. In healthy cells, the negative charge established by the intact mitochondrial membrane potential facilitates the accumulation of JC-1 in the mitochondrial matrix. At high concentrations JC-1 forms aggregates and become red fluorescent. In apoptotic cells the mitochondrial potential collapses and JC-1 localizes to the cytosol in its monomeric green fluorescent form. A cell impermeable DNA stain (like DAPI) can be included to stain necrotic and late apoptotic cells. Jurkat cells were grown in RPMI+10% FCS to a density of 5.0×10^5 cells/ml and treated with 10 μM campthotecin (apoptosis inducing drug) for 5 hours. Cells were stained with 2.5 μg/ml JC-1 for 10 minutes at 37° C., washed with PBS, resuspended in PBS+1 μg/ml DAPI and analysed using the claimed apparatus.

Jurkat (JM) cells = assay: Annexin V apoptosis assay (AlexaFluor 488-Annexin V, PI) with the claimed apparatus; details: 3 μM Camptothecin, three hours incubation
Protocol: Here the claimed apparatus is used in assay fluorescently labeled Annexin V to stain apoptotic and necrotic cells and PI to distinguish between the early and late apoptotic/necrotic cells. Jurkat (JM) cells were cultivated at 37° C. in a humidified air atmosphere with 5% CO2 in RPMI (Invitrogen, Cat. No. 61870) supplemented with 10% heat-inactivated fetal bovine serum (Invitrogen, Cat. No. 10108-165). 3 μM Camptothecin (Sigma, Cat. No. C-9911) was added to the cells in order to induce apoptosis. After three hours incubation (37° C., 5% CO2) cells were harvested in cold phosphate-buffered saline (PBS) and stained with AlexaFluor 488-labelled Annexin V from the Vybrant® Apoptosis Assay Kit #2 (Molecular probes, V13241) according to the manufacturer's protocol. The stained cells were loaded into a cassette containing propidium iodide. The cassette was placed in the claimed apparatus and the cells were counted and investigated using the claimed apparatus and in-house developed software. The cells were also investigated using an Olympus IX50 fluorescent microscope. Images were captured using a Lumenera CCD camera and in-house developed software. AF488 fluorescence was detected using a U-MWIBA3 (blue bandpass) filter cube (Olympus) and PI fluorescence was detected using a U-MWG2 (green longpass) filter cube (Olympus).

CHO cells = assay: Caspase based assay (SR-VAD-FMK poly-caspase FLICA, DACM, SYTOX green); details: 1 μM nocodazole, 16 hours
Text: Another caspase based apoptosis assay is the FLICAssay (Fluorochrome Inhibitor of Caspases Assay). This assay detects active caspases inside the cell using a caspase specific inhibitor sequence linked to a fluorescent probe. The non-cytotoxic caspase specific inhibitor is cell permeant and passes through the intact plasma membrane and covalently binds to the reactive cysteine residue on the large subunit of the active caspase heterodimer. […] Measuring the fluorescence thus gives a direct measure of the amount of active caspase in the whole living cell.
To quantify caspase activity by the FLICAssay, the cells to be investigated are incubated with the chosen caspase specific inhibitor sequence linked to a fluorescent probe. Cells are washed to remove unbound inhibitor and the fluorescence of the cells is determined using the claimed apparatus thereby making measurement of caspase activity on the single cell level possible. […]
CHO cells were cultivated in RPMI (Invitrogen, Cat. No. 61870) supplemented with 10% heat-inactivated fetal bovine serum (Invitrogen, Cat. No. 10108-165) at 37° C. in a humidified air atmosphere with 5% CO2. […] The NC-Slide was placed in the claimed apparatus and the cells were counted and investigated using the claimed apparatus and in-house developed software. […]

Jurkat cells [2] = assay: Annexin V apoptosis assay (AF594-annexin V, DACM, SYTOX green) with the claimed apparatus; details: 1 μM nocodazole, 16 hours; for annexin V positive cells (apoptotic cells): viable cells, nonviable cells gated out by SYTOX green
Protocol: Here the claimed apparatus is used in assaying fluorescently labelled annexin V to stain apoptotic and necrotic cells and SYTOX green to distinguish between the early and late apoptotic/necrotic cells. In addition DACM is used to stain all viable cells. Jurkat cells were cultivated at 37° C. in a humidified air atmosphere with 5% CO2 in RPMI (Invitrogen, Cat. No. 61870) supplemented with 10% heat-inactivated fetal bovine serum (Invitrogen, Cat. No. 10108-165). Cells were either treated with 1 μM nocodazole (Sigma, Cat. No. M1404) or left untreated. After 16 hours incubation (37° C., 5% CO2) cells were harvested in cold phosphate-buffered saline (PBS) and stained with AlexaFluor 594-labelled annexin V (Molecular probes, A-13203) according to the manufacturer's protocol. After annexin V staining all viable cells were co-stained using DACM (N-(7-dimethylamino-4-methyl-3-coumarinyl)-maleimide, WAKO Pure Chemical Industries, CAS no. 55145-14-7) and nonviable cells were stained with SYTOX green (Invitrogen, S7020). The stained cells were loaded into a NC-Slide. The NC-Slide was placed in the claimed apparatus and the cells were counted and investigated using the claimed apparatus and in-house developed software. The cells were also investigated using an Olympus IX50 fluorescent microscope. SYTOX green fluorescence was detected using a U-MWIBA3 (blue bandpass) filter cube (Olympus), the annexin V AF594 conjugate was detected using a U-MWG2 (green longpass) filter cube (Olympus) and DACM was detected using the U-MNUA2 (UV band pass) filter cube (Olympus).

With CC[C@@]1(O)C(=O)OCc2c1cc1n(c2=O)Cc2cc3ccccc3nc2-1 [Camptothecin] the “depolarized/apoptotic cells (JC-1)” value (Jurkat cells [1]) was 60%, the “viability (DAPI positive cells counted)” value (Jurkat cells [1]) was “approximately 96%” and the “concentration of apoptotic cells (Annexin V conjugate binding cells)” value (Jurkat (JM) cells) was 2.6×10^5. The “concentration of non-viable cells (PI)” value (Jurkat (JM) cells) was 4.5×10^4.
In the case of COC(=O)Nc1nc2ccc(C(=O)c3cccs3)cc2[nH]1 [nocodazole], the “cells exhibiting strong red fluorescence (caspase activity, apoptotic cells) versus untreated cells” value (CHO cells) is reported as “Substantially more”, the viability (Jurkat cells [2]) is reported as “almost not affected” and the “annexin V positive cells (apoptotic cells)” value (Jurkat cells [2]) is reported as “more than 40%”. For the same compound, the “annexin V positive cells (apoptotic cells)” value (Jurkat cells [2]; listed as Nocodazole) was about 40%.
